Laboratory results reported in the supplement of paper PMC10307832.

Assays:
Experiment in all cases: relative viability (nuclei count vs DMSO), 5 days (fraction); higher = more cells survive
Dactolisib + Pictilisib = compound: Cn1c(=O)n(-c2ccc(C(C)(C)C#N)cc2)c2c3cc(-c4cnc5ccccc5c4)ccc3ncc21 [Dactolisib] + CS(=O)(=O)N1CCN(Cc2cc3nc(-c4cccc5[nH]ncc45)nc(N4CCOCC4)c3s2)CC1 [Pictilisib] (partner 1 µM)
In short: (§1)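 Lung cancer cell lines in 1536-well plates got either a single drug or a fixed anchor-drug dose together with five library-drug doses (not always all listed) in √10 steps, by pin tool, on the day after seeding. Nuclei were counted after 5 days, and relative viability is the treated-to-vehicle ratio of nuclei counts. Values are medians of duplicate plates.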

AZ505 + Trametinib = compound: C1CCC(CC1)N(CCNCCC2=C3C(=C(C=C2)O)NC(=O)CO3)C(=O)CCNCCC4=CC(=C(C=C4)Cl)Cl [AZ505] + CC(=O)Nc1cccc(-n2c(=O)n(C3CC3)c(=O)c3c(Nc4ccc(I)cc4F)n(C)c(=O)c(C)c32)c1 [Trametinib] (partner 0.02 µM)
In short: as §1

Dactolisib + Olaparib = compound: Cn1c(=O)n(-c2ccc(C(C)(C)C#N)cc2)c2c3cc(-c4cnc5ccccc5c4)ccc3ncc21 [Dactolisib] + O=C(c1cc(Cc2n[nH]c(=O)c3ccccc23)ccc1F)N1CCN(C(=O)C2CC2)CC1 [Olaparib] (partner 8 µM)
In short: as §1

AZ505 + Luminespib = compound: C1CCC(CC1)N(CCNCCC2=C3C(=C(C=C2)O)NC(=O)CO3)C(=O)CCNCCC4=CC(=C(C=C4)Cl)Cl [AZ505] + CCNC(=O)c1noc(-c2cc(C(C)C)c(O)cc2O)c1-c1ccc(CN2CCOCC2)cc1 [Luminespib] (partner 0.01 µM)
In short: as §1

| Cell Line | relative viability (Dactolisib + Pictilisib; first compound 0.002 µM) | relative viability (Dactolisib + Pictilisib; first compound 0.006325 µM) | relative viability (Dactolisib + Pictilisib; first compound 0.02 µM) | relative viability (Dactolisib + Pictilisib; first compound 0.06325 µM) | relative viability (Dactolisib + Pictilisib; first compound 0.2 µM) | relative viability (AZ505 + Trametinib; first compound 0.08 µM) | relative viability (AZ505 + Trametinib; first compound 0.253 µM) | relative viability (AZ505 + Trametinib; first compound 0.8 µM) | relative viability (AZ505 + Trametinib; first compound 2.53 µM) | relative viability (AZ505 + Trametinib; first compound 8 µM) | relative viability (Dactolisib + Olaparib; first compound 0.002 µM) | relative viability (Dactolisib + Olaparib; first compound 0.006325 µM) | relative viability (Dactolisib + Olaparib; first compound 0.02 µM) | relative viability (Dactolisib + Olaparib; first compound 0.06325 µM) | relative viability (Dactolisib + Olaparib; first compound 0.2 µM) | relative viability (AZ505 + Luminespib; first compound 0.08 µM) | relative viability (AZ505 + Luminespib; first compound 0.8 µM) | relative viability (AZ505 + Luminespib; first compound 2.53 µM) | relative viability (AZ505 + Luminespib; first compound 8 µM) | relative viability (AZ505 + Luminespib; first compound 0.253 µM) |
| --- | --- | --- | --- | --- | --- | --- | --- | --- | --- | --- | --- | --- | --- | --- | --- | --- | --- | --- | --- | --- |
| NCI-H23 | 0.503 | 0.529 | 0.37 | 0.252 | 0.23 | 0.246 | 0.414 | 0.427 | 0.442 | 0.347 | 0.266 | 0.254 | 0.239 | 0.223 | 0.161 | 0.214 | 0.208 | 0.221 | 0.196 | – |
| NCI-H322M | 0.504 | 0.564 | 0.34 | 0.448 | 0.461 | 0.501 | – | 0.521 | 0.491 | 0.486 | 0.752 | 0.789 | 0.774 | 0.719 | 0.674 | 0.931 | 0.798 | 0.819 | 0.918 | 0.84 |
| NCI-H358 | 0.345 | 0.302 | 0.337 | 0.196 | 0.215 | 0.113 | 0.136 | 0.112 | 0.119 | 0.13 | 0.675 | 0.557 | 0.552 | 0.478 | 0.169 | 0.22 | 0.402 | – | 0.584 | 0.306 |
| NCI-H441 | 0.758 | 0.464 | 0.412 | 0.285 | 0.233 | 0.413 | 0.385 | 0.536 | 0.568 | 0.465 | 0.784 | 0.571 | 0.597 | 0.248 | 0.25 | 0.248 | 0.313 | 0.308 | 0.445 | 0.388 |
| NCI-H460 | 0.423 | 0.355 | 0.289 | 0.302 | 0.306 | 0.218 | 0.174 | 0.065 | 0.126 | 0.0757 | 0.256 | 0.45 | 0.423 | 0.341 | 0.335 | 0.0296 | 0.0262 | 0.0334 | 0.0373 | 0.0436 |
| NCI-H520 | 0.299 | 0.235 | 0.234 | 0.195 | 0.184 | 0.766 | 0.638 | 0.661 | 0.639 | 0.699 | 0.328 | 0.308 | 0.284 | 0.144 | 0.128 | 0.232 | 0.312 | 0.239 | 0.211 | 0.186 |
| NCI-H596 | 0.373 | 0.348 | 0.383 | 0.352 | 0.299 | 0.721 | – | 0.593 | 0.648 | 0.674 | 0.656 | 0.719 | 0.527 | 0.417 | 0.329 | 0.928 | 0.976 | 0.992 | 0.965 | 0.917 |
| NCI-H647 | 0.448 | 0.407 | 0.409 | 0.227 | 0.151 | 0.478 | 0.509 | 0.404 | 0.379 | 0.467 | 0.54 | 0.349 | 0.315 | 0.129 | 0.0846 | 0.122 | 0.119 | 0.134 | 0.138 | 0.221 |
| NCI-H650 | 0.86 | 0.771 | 0.704 | 0.558 | 0.451 | 0.98 | 0.841 | 0.924 | 0.893 | 1.15 | 0.552 | 0.378 | 0.437 | 0.312 | 0.195 | 0.726 | 0.835 | 0.774 | 0.709 | 0.777 |
| NCI-H661 | 0.468 | 0.406 | 0.389 | 0.377 | 0.251 | 0.603 | 0.596 | 0.537 | 0.577 | 0.541 | 0.706 | 0.656 | 0.771 | 0.504 | 0.434 | 0.879 | 0.909 | 0.914 | 0.928 | 0.928 |
| NCI-H727 | 0.275 | 0.339 | 0.396 | 0.212 | 0.227 | 0.418 | 0.411 | 0.365 | 0.391 | 0.358 | – | 0.79 | 0.874 | 0.699 | 0.629 | 0.319 | 0.328 | – | 0.421 | 0.336 |
| NCI-H838 | 0.351 | 0.302 | 0.239 | 0.204 | 0.218 | 0.487 | 0.464 | 0.505 | 0.523 | 0.479 | 0.924 | 0.657 | 0.43 | 0.273 | 0.208 | 0.413 | 0.253 | 0.287 | 0.424 | 0.251 |
| NCI-H1355 | 0.505 | 0.401 | 0.43 | 0.32 | 0.241 | 0.419 | 0.394 | 0.446 | 0.445 | 0.44 | 0.831 | 0.684 | 0.644 | 0.443 | 0.27 | 0.672 | 0.655 | 0.675 | 0.718 | 0.701 |
| NCI-H1395 | 0.64 | 0.611 | 0.569 | 0.525 | 0.446 | 1.06 | – | 0.991 | 1.01 | 1.14 | 0.439 | 0.434 | 0.428 | 0.387 | 0.401 | 0.618 | 0.693 | 0.696 | 0.66 | 0.752 |
| NCI-H1437 | 0.452 | 0.421 | 0.371 | 0.268 | 0.165 | 0.504 | 0.472 | 0.473 | 0.662 | 0.568 | 0.686 | 0.6 | 0.629 | 0.64 | 0.543 | 1.04 | 1.17 | 1.09 | 1.07 | 1.15 |
| NCI-H1650 | 0.672 | 0.48 | 0.524 | 0.321 | 0.323 | 0.48 | 0.686 | 0.71 | 0.556 | 0.626 | 1.03 | 0.704 | 0.722 | 0.498 | 0.568 | 0.206 | 0.202 | 0.19 | 0.199 | 0.227 |
